This data set in a line: Human HepG2 cell viability assay in 384 well format. Format: toxicity, cell-based. On the set-up: dose 125 nL, time 70.5 hour; concentration not given beside the values. The conditions noted are these: HepG2 cells, read-out: Inhibition.
Regarding `CCn1ccnc1CN1CCCC(N(C)CCc2ccccc2)C1` (stereo not given), the cytotoxicity at 70.5 h was -1.22%.

For `N#Cc1ccsc1N1CCC(Sc2ncc[nH]2)C1=O` (stereo not given), the cytotoxicity at 70.5 h is -7.58%.

Consider `CC(C)NC(=O)CS(=O)(=O)c1cc2c(cc1Cl)OCCO2`, for which the cytotoxicity at 70.5 h was -3.28%.

Take `O=C(O)C1CCN(c2nc3c(-c4ccccc4F)csc3c(=O)[nH]2)CC1`: the cytotoxicity at 70.5 h is -0.14%.

As to `O=C(c1ccc(N2CCCC2)nn1)N1CCCC(n2cccn2)C1` (stereo not given), the cytotoxicity at 70.5 h was -1.11%.

As for `Cc1n[nH]c(C2CN(Cc3csc(C4CC4)n3)CCO2)n1` (stereo not given), the cytotoxicity at 70.5 h is -7.97%.

Regarding `CC(=O)N1CCC2(CCN(Cc3cccc(F)c3)CC2)CC1`, the cytotoxicity at 70.5 h was -2.12%.

Turning to `Cn1ccnc1CCNS(=O)(=O)Cc1cccc(C#N)c1`, the cytotoxicity at 70.5 h was -8.33%.

For the compound `CC(=O)N1CCN(c2cc(C3CN(C(C)=O)CCO3)nc(C)n2)CC1` (stereo not given), the cytotoxicity at 70.5 h is -4.45%.

In the case of `Cc1nc2cc(C(=O)N(CCN(C)C)CCN(C)C)ccc2n1C`, the cytotoxicity at 70.5 h was -7.57%.

For the compound `CCCNC(=O)Cn1nc(C(C)C)c2cnn(C(C)(C)C)c2c1=O`, the cytotoxicity at 70.5 h was -0.765%.

With `CNc1cc(C)nc(C2CCN(CCO)CC2)n1`, the cytotoxicity at 70.5 h was -6.23%.

With `CCn1cc(C(=O)n2nc(C)cc2C)c(S(=O)(=O)N2CCCCC2)n1`, the cytotoxicity at 70.5 h is -3.56%.

Turning to `CC(=O)c1cccc(NC(=O)N(CC(F)F)C2CC2)c1`, the cytotoxicity at 70.5 h was 19.6%.

For the compound `COCC(=O)NC1(c2cccc(C(F)(F)F)c2)CCC1`, the cytotoxicity at 70.5 h is -14.5%.

As for `COc1ccccc1C(C)CC(=O)N1CC[C@H](O)C1` (stereo not given in full), the cytotoxicity at 70.5 h is -1.27%.

In the case of `CC(C)n1[nH]c(=O)c2c1NC(=O)CSC2c1ccc(OCC(N)=O)cc1` (stereo not given), the cytotoxicity at 70.5 h is -11.1%.

Turning to `O=C(NCC1Cn2nnc(-c3ccncc3)c2CO1)c1ccc[nH]1` (stereo not given), the cytotoxicity at 70.5 h is -5.04%.

Consider `O=C(N1CCOCC1)N1CCN(CC(O)c2ccc(F)cc2)CC1` (stereo not given), for which the cytotoxicity at 70.5 h amounted to 3.33%.

Take `CN(C)C(=O)c1ccc2c(c1)N(C)C(CC(=O)NCCOCCO)CO2` (stereo not given): the cytotoxicity at 70.5 h amounted to 12.2%.

Consider `Cc1cc(NC(=O)CN2CCCC2Cn2nc(C)nc2C)n(C)n1` (stereo not given), for which the cytotoxicity at 70.5 h is -14.8%.

In the case of `CC(C)(C)CC(=O)Nc1ccccc1SCC(N)=O`, the cytotoxicity at 70.5 h is -3.84%.

As to `Cc1nc2c(c(NCCc3nccs3)n1)CCN(CC1CC1)CC2`, the cytotoxicity at 70.5 h was -14.3%.

Take `Cc1ccsc1C(Cn1ccnc1-c1ccccc1C(=O)O)N(C)C` (stereo not given): the cytotoxicity at 70.5 h was 19.1%.

With `N#Cc1ccc(OCCNCCn2cccn2)cc1`, the cytotoxicity at 70.5 h was -10.2%.

Turning to `COc1ccc(COCC(O)CNC(=O)Cc2ccc(C)cc2)cc1` (stereo not given), the cytotoxicity at 70.5 h is -2.43%.

Turning to `Cc1csc(N2CCN(CC(=O)NC3CCOCC3)CC2C)n1` (stereo not given), the cytotoxicity at 70.5 h was -1.39%.

For the compound `Cc1ccnc(NC(=O)C2CCCO2)c1` (stereo not given), the cytotoxicity at 70.5 h was 6.19%.

For `c1ccc(CCN2CC(n3cccn3)C2)nc1`, the cytotoxicity at 70.5 h was -15.6%.

Consider `CC(C)c1ccn(C2(C(=O)O)CCN(c3ccncc3F)CC2)n1`, for which the cytotoxicity at 70.5 h is -4.07%.

Regarding `Cc1cc(OCc2cccc(F)c2)ccc1NC(=O)C(C)NC(N)=O` (stereo not given), the cytotoxicity at 70.5 h amounted to 5.5%.

As to `COCCN1CCC2(CC1)CCN(Cc1ccccn1)CC2`, the cytotoxicity at 70.5 h is -1.25%.

`CC(C)[C@H]1CN(C2Cc3ccccc3C2)C[C@@H]1NS(C)(=O)=O`: the cytotoxicity at 70.5 h turned out to be 7.83%.

With `Cn1cnnc1C1CCCN(C(=O)c2cc(Cl)c3c(c2)OCO3)C1` (stereo not given), the cytotoxicity at 70.5 h was -11.6%.

As to `CC[C@H](C)[C@H](N)C(=O)N1CC(=O)c2sc(NCc3ccccc3)nc2C1`, the cytotoxicity at 70.5 h stood at 7.34%.

As to `C[C@H](NC(=O)C1CCCC1)c1nc2cc(-c3ccc(F)cc3)ncn2n1`, the cytotoxicity at 70.5 h worked out at 4.97%.

As for `Cc1cnc(N2CCOC3(CCCN(c4ncccn4)C3)C2)nc1` (stereo not given), the cytotoxicity at 70.5 h was -4.18%.

Consider `Cc1noc2nc(C3CCN(Cc4ccccn4)CC3)cc(C(F)F)c12`, for which the cytotoxicity at 70.5 h was -2.48%.

Turning to `CC(=O)N1CCCC1(C)c1nc(C)no1` (stereo not given), the cytotoxicity at 70.5 h was 0.978%.

For `Cc1noc(CCCC(=O)NCC(c2ccco2)N2CCCCC2)n1` (stereo not given), the cytotoxicity at 70.5 h was -3%.

Turning to `CCc1cc(C(=O)NCC2CCN(Cc3cccc(C#N)c3)C2)on1` (stereo not given), the cytotoxicity at 70.5 h was -1.72%.

`CS(=O)(=O)N1CC[C@@H]2[C@@H](CCC(=O)N2CCC2=CCCCC2)C1`: the cytotoxicity at 70.5 h was determined as 16.1%.

Consider `Cc1cccc(N(CCC(N)=O)CC(=O)Nc2cc(Cl)ccc2Cl)c1`, for which the cytotoxicity at 70.5 h was -5.69%.

As for `Cc1ccc(S(=O)(=O)NC(=O)COc2cccc(C#N)c2)c(C)c1`, the cytotoxicity at 70.5 h is 14.4%.

In the case of `Cc1cc(NC(=O)CN2CCC(N3CCNC3=O)CC2)on1`, the cytotoxicity at 70.5 h was -5.65%.

`O=C(O)c1ccccc1-c1cnc(Cn2c(=O)cc[nH]c2=O)s1`: the cytotoxicity at 70.5 h was -6.43%.

As for `CNS(=O)(=O)CC(=O)N(C1CC1)C1Cc2ccccc2C1`, the cytotoxicity at 70.5 h is -13.4%.

As to `CCN(C)c1ccc(CNS(=O)(=O)CC2CCCO2)cc1F` (stereo not given), the cytotoxicity at 70.5 h was -16%.

On to `O=C(Nc1cccnc1-n1cc(Cl)cn1)C1CCCC1`, for which the cytotoxicity at 70.5 h is -29.5%.

As for `Cn1ccnc1SCC(=O)NCc1ccc2c(c1)CCC(=O)N2`, the cytotoxicity at 70.5 h was determined as 2.79%.

Regarding `CC(C)(NCc1cccc(O)c1)c1ccc2c(c1)OCO2`, the cytotoxicity at 70.5 h was -11.8%.

Turning to `Cc1nc(CNc2ccc(C(=O)NCc3ccco3)cc2C)no1`, the cytotoxicity at 70.5 h is -11.5%.

As to `CCS(=O)(=O)N1CCOC2(CCCN(c3ccccn3)C2)C1` (stereo not given), the cytotoxicity at 70.5 h is -2.6%.

Regarding `O=C(NCCCO)Nc1cnc2cc(Cl)ccc2c1O`, the cytotoxicity at 70.5 h was -1.44%.

For the compound `Cc1ccc(=O)n(CC2(O)CCN(Cc3cnn(C)c3)CC2)n1`, the cytotoxicity at 70.5 h was -3.09%.

On to `Cc1ccn(-c2ccccc2NCc2ncc[nH]2)n1`, for which the cytotoxicity at 70.5 h came out at 3.45%.

Turning to `CC(C)n1c(C2CCCN(CC(=O)NC3CC3)C2)nc2ccccc21` (stereo not given), the cytotoxicity at 70.5 h was -1.26%.

On to `CCOc1cccc2c1OCC(C(=O)NS(=O)(=O)c1c(C)noc1C)=C2`, for which the cytotoxicity at 70.5 h was -2.53%.

`Cc1ccc(C(=O)N2CCN(C(=O)Nc3ccccn3)CC2)o1`: the cytotoxicity at 70.5 h was found to be 29.1%.

Take `Cc1csc(CNc2cccc(OCCN3CCCC3)c2)n1`: the cytotoxicity at 70.5 h turned out to be 19.9%.

Regarding `O=C(CO[C@@H]1CC[C@H]2[C@H]1OCCN2Cc1ccccn1)N1CCCC1`, the cytotoxicity at 70.5 h was found to be 13.4%.

Regarding `CCOC1CC2(CCN(CCO)CC2)c2ccc(C)cc21` (stereo not given), the cytotoxicity at 70.5 h is 1.71%.

As for `O=C(NCC1CCCCC1)N1C[C@H]2C[C@H](C(=O)N3CCOCC3)[C@@H](C1)O2`, the cytotoxicity at 70.5 h came to 24.6%.

Turning to `CS(=O)(=O)NC[C@]12COC[C@H]1CN(C(=O)c1cnccn1)C2`, the cytotoxicity at 70.5 h was 19.5%.

Consider `O=C(C1CCCO1)N1CCC2(CC1)CNCCO2` (stereo not given), for which the cytotoxicity at 70.5 h amounted to 9.56%.

`CO[C@H]1CCN(C(=O)c2ccc3oc(C)cc3c2)C[C@@]12CCCO2`: the cytotoxicity at 70.5 h is -5.42%.

For the compound `CNCc1cc(C)n(-c2ccccc2OC)c1C`, the cytotoxicity at 70.5 h was -5.13%.

As to `O=C(NCCn1ccnc1-c1cc2n(n1)CCNC2)c1ccncc1`, the cytotoxicity at 70.5 h is -5.81%.

Regarding `CCc1nnc2n1CCN(Cc1noc(-c3cccc(C)c3)n1)C2`, the cytotoxicity at 70.5 h is -2.11%.

`Cn1cc(CN2CC[C@H]3O[C@H](C(=O)Nc4cnccn4)CC[C@H]32)cn1`: the cytotoxicity at 70.5 h was found to be 29.6%.

Turning to `CC1(C)CC1C(=O)NS(=O)(=O)Cc1cc(-c2ccccc2)no1` (stereo not given), the cytotoxicity at 70.5 h was -1.85%.

As for `CCN(CC)C(=O)CCNC(=O)N1CCC(c2ccccc2)C1` (stereo not given), the cytotoxicity at 70.5 h was -6.27%.

Regarding `Fc1ccc(Cc2cccc(C3CCN(C4CCOCC4)CC3)n2)cc1`, the cytotoxicity at 70.5 h was found to be 0.432%.

As for `O=C(C(c1ccccc1)S(=O)(=O)c1ccccn1)N1CCCCC1` (stereo not given), the cytotoxicity at 70.5 h was -7.07%.

`O=C(NCCSc1ccccc1)[C@H]1CNC[C@@H](C(=O)N2CCOCC2)C1`: the cytotoxicity at 70.5 h was -7.93%.

Take `CCn1ncnc1CN1CCC(CNC(=O)c2cccnc2O)C1` (stereo not given): the cytotoxicity at 70.5 h was -4.94%.

Consider `Cc1nccn1-c1ccc(=O)n(CCNC(=O)c2c(F)cccc2Cl)n1`, for which the cytotoxicity at 70.5 h is -6.16%.

Regarding `O=C(NCC1Cn2nnc(-c3ccsc3)c2CO1)c1ccc[nH]1` (stereo not given), the cytotoxicity at 70.5 h stood at 1.74%.

With `COCC(=O)NC1CC2(CCN(CC3CC3)CC2)Oc2ccccc21` (stereo not given), the cytotoxicity at 70.5 h was 18.1%.

For `CC(C)NC(=O)C1CCc2nnc(CNC(=O)c3ccc(Cl)cc3Cl)n21` (stereo not given), the cytotoxicity at 70.5 h is 1.45%.

For the compound `CCCc1nc(NCc2c(C)nn(CCC)c2C)c2cnn(C)c2n1`, the cytotoxicity at 70.5 h is -9.62%.

Regarding `COCC(=O)NCc1cc2n(n1)CCCN(CCCC1CCCC1)C2`, the cytotoxicity at 70.5 h was -2.24%.

Turning to `COCCn1cncc1Cn1ncc2ccccc2c1=O`, the cytotoxicity at 70.5 h is -4.19%.

With `Cc1noc(C)c1CN(C)Cc1csc(-c2ccccc2F)n1`, the cytotoxicity at 70.5 h is -3.72%.

On to `N#Cc1ccccc1N1CCCN(CC(=O)Nc2ccccc2Cl)CC1`, for which the cytotoxicity at 70.5 h is -6.48%.

With `CCNCCc1nc2cc(F)ccc2[nH]1`, the cytotoxicity at 70.5 h is -4.56%.

In the case of `c1cc(CN2CCCCC2c2ccc(Nc3cnccn3)nc2)ccn1` (stereo not given), the cytotoxicity at 70.5 h was -4.05%.

With `Cc1nnc(SCCCNC(=O)Cc2ccc3c(c2)OCO3)s1`, the cytotoxicity at 70.5 h worked out at 11.5%.

As to `O=C(O)c1nc(SCc2ccccc2)ncc1Br`, the cytotoxicity at 70.5 h was -8.29%.

Regarding `Cc1ncsc1CNC(=O)N1CCN(Cc2ccccc2)C[C@H]1C`, the cytotoxicity at 70.5 h is -3.58%.

As for `CCC(CNC(=O)c1cc(OC)ccc1Br)N1CCc2ccccc2C1` (stereo not given), the cytotoxicity at 70.5 h worked out at 7.55%.

In the case of `CCOc1ccc(Cl)c(C(=O)N2CCN(C(=O)OC)CC2)n1`, the cytotoxicity at 70.5 h was -14.3%.

As to `CCCS(=O)(=O)NCC(C)c1ccc(F)c(F)c1` (stereo not given), the cytotoxicity at 70.5 h worked out at 6.33%.

In the case of `CCOCc1cccc(NCc2c[nH]nc2-c2cccnc2)c1`, the cytotoxicity at 70.5 h was -2.34%.

As for `CCn1cc(CN2CCCn3nc(CNC(=O)N(C)C)cc3C2)cn1`, the cytotoxicity at 70.5 h was -7.73%.

For the compound `CC1CCN(c2ncc3c(n2)CN(c2ccccc2)C3=O)CC1`, the cytotoxicity at 70.5 h was -9.08%.

With `O=C(NC1CCC1)c1n[nH]c2c1CNCC2`, the cytotoxicity at 70.5 h was -8.89%.

Regarding `CC(=O)N1CCC2(CCN(CC3CCOC3)C2)CC1` (stereo not given), the cytotoxicity at 70.5 h was -1.33%.

Take `CC(Nc1cccc(COCc2ccco2)c1)C(=O)NC(N)=O` (stereo not given): the cytotoxicity at 70.5 h was -23%.

Consider `COc1cccc2c(=O)n(C3CCCNC3)cnc12` (stereo not given), for which the cytotoxicity at 70.5 h is -11.4%.

The values above are taken from ChEMBL document CHEMBL3507680, “University of Dundee, Gates Library screen for HepG2 cell viability”.
